Data: PubChem BioAssay (NCI)
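Tested at 5 concentrations; 48 h exposure; 96-well plates; endpoints linearly interpolated, else capped at highest concentration. GI50 marks 50% less growth. TGI marks complete inhibition of growth.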

Tests used:
Test in all cases: DTP human tumour cell line panel, 48 h
[1] = tested on: MALME-3M melanoma
[2] = tested on: SK-OV-3 ovarian
[3] = tested on: SNB-19 CNS
[4] = tested on: HOP-92 NSCLC
[5] = tested on: SK-MEL-28 melanoma
[6] = tested on: OVCAR-5 ovarian
[7] = tested on: HCT-116 colon
[8] = tested on: PC-3 prostate
[9] = tested on: SK-MEL-5 melanoma
[10] = tested on: HT29 colon
[11] = tested on: NCI-H522 lung
[12] = tested on: SF-268 CNS
[13] = tested on: UO-31 renal
[14] = tested on: UACC-62 melanoma
[15] = tested on: ACHN renal
[16] = tested on: A549 NSCLC
[17] = tested on: K-562 leukemia
[18] = tested on: MOLT-4 leukemia
[19] = tested on: OVCAR-4 ovarian
[20] = tested on: LOX IMVI melanoma
[21] = tested on: NCI-H23 lung
[22] = tested on: MDA-MB-435
[23] = tested on: NCI-H226 lung
[24] = tested on: TK-10 renal
[25] = tested on: T-47D breast
[26] = tested on: RPMI-8226 leukemia
[27] = tested on: U251 CNS
[28] = tested on: HCT-15 colon
[29] = tested on: KM12 colon
[30] = tested on: SK-MEL-2 melanoma
[31] = tested on: SN12C renal
[32] = tested on: MDA-MB-231 breast
[33] = tested on: M14 melanoma
[34] = tested on: OVCAR-8 ovarian
[35] = tested on: UACC-257 melanoma
[36] = tested on: NCI/ADR-RES ovarian
[37] = tested on: A498 renal
[38] = tested on: SF-539 CNS
[39] = tested on: COLO 205 colon
[40] = tested on: HL-60(TB) leukemia
[41] = tested on: CCRF-CEM leukemia
[42] = tested on: SR leukemia
[43] = tested on: HS 578T breast
[44] = tested on: BT-549 breast
[45] = tested on: MCF7 breast
[46] = tested on: 786-0 renal
[47] = tested on: HOP-62 NSCLC
[48] = tested on: IGROV1 ovarian
[49] = tested on: SW-620 colon
[50] = tested on: SF-295 CNS
[51] = tested on: HCC-2998 colon
[52] = tested on: EKVX NSCLC
[53] = tested on: CAKI-1 renal
[54] = tested on: SNB-75 CNS
[55] = tested on: DU-145 prostate

## CCC1=Cc2cc(OC)ccc2OC12C=Cc1cc(OC)ccc1O2 (configuration not stated)
[1]
  GI50: 624 nM
  TGI: > 100 µM
[2]
  GI50: 563 nM
  TGI: > 100 µM
[3]
  GI50: 550 nM
  TGI: > 100 µM
[4]
  GI50: 964 nM
  TGI: > 26.7 µM
[5]
  GI50: > 100 µM
  TGI: > 100 µM
[6]
  GI50: 936 nM
  TGI: > 100 µM
[7]
  GI50: 518 nM
  TGI: > 100 µM
[8]
  GI50: 536 nM
  TGI: > 100 µM
[9]
  GI50: 1420 nM
  TGI: > 100 µM
[10]
  GI50: 347 nM
  TGI: 1270 nM
[11]
  GI50: 283 nM
  TGI: 936 nM
[12]
  GI50: 1040 nM
  TGI: > 100 µM
[13]
  GI50: 1150 nM
  TGI: > 100 µM
[14]
  GI50: 553 nM
  TGI: > 100 µM
[15]
  GI50: 789 nM
  TGI: > 100 µM
[16]
  GI50: 809 nM
  TGI: > 100 µM
[17]
  GI50: 379 nM
  TGI: > 100 µM
[18]
  GI50: 500 nM
  TGI: > 100 µM
[19]
  GI50: > 100 µM
  TGI: > 100 µM
[20]
  GI50: 484 nM
  TGI: > 100 µM
[21]
  GI50: 1070 nM
  TGI: > 100 µM
[22]
  GI50: 228 nM
  TGI: 503 nM
[23]
  GI50: 1060 nM
  TGI: > 100 µM
[24]
  GI50: > 100 µM
  TGI: > 100 µM
[25]
  TGI: > 100 µM
[26]
  GI50: 393 nM
  TGI: > 100 µM
[27]
  GI50: 517 nM
  TGI: > 100 µM
[28]
  GI50: 450 nM
  TGI: > 100 µM
[29]
  GI50: 423 nM
  TGI: > 100 µM
[30]
  GI50: 303 nM
  TGI: 896 nM
[31]
  GI50: 796 nM
  TGI: > 100 µM
[32]
  GI50: 964 nM
  TGI: > 100 µM
[33]
  GI50: 366 nM
[34]
  GI50: 596 nM
  TGI: > 100 µM
[35]
  GI50: 977 nM
  TGI: > 100 µM
[36]
  GI50: 421 nM
  TGI: > 100 µM
[37]
  GI50: 250 nM
  TGI: 827 nM
[38]
  GI50: 328 nM
  TGI: 2150 nM
[39]
  GI50: 326 nM
  TGI: 898 nM
[40]
  GI50: 331 nM
  TGI: > 100 µM
[41]
  GI50: 398 nM
  TGI: > 100 µM
[42]
  GI50: 327 nM
  TGI: > 100 µM
[43]
  GI50: 298 nM
[44]
  GI50: 499 nM
  TGI: 3.81 µM
[45]
  GI50: 389 nM
  TGI: > 100 µM
[46]
  GI50: 676 nM
  TGI: > 100 µM
[47]
  GI50: 594 nM
  TGI: > 100 µM
[48]
  GI50: 739 nM
  TGI: > 100 µM
[49]
  GI50: 385 nM
  TGI: > 100 µM
[50]
  GI50: 418 nM
  TGI: > 100 µM
[51]
  GI50: 1710 nM
  TGI: > 100 µM
[52]
  GI50: 678 nM
  TGI: > 100 µM
[53]
  GI50: 504 nM
  TGI: > 100 µM
[54]
  GI50: 218 nM
  TGI: 720 nM
[55]
  GI50: 481 nM
  TGI: > 100 µM
